# Assay results published in patent US9926588B2, “Method for testing and screening P38 MAP kinase modifiers” (THE TRUSTEES OF THE UNIVERSITY OF PENNSYLVANIA, priority 2007, dated 2018).
# Legend:
# [1] = test system: SMN sub-cellular localization in HeLa PV cells; experiment: SMN sub-cellular localization by indirect immunofluorescence (anti-SMN 2B1); assay type: cell-based; conditions: for redistribution of SMN from the cytoplasm to the nucleus (accumulation of SMN in the nucleus): short treatment (2-6 hours); for immunostaining of SMN showing nuclear accumulation (FIG. 8): emetine, puromycin, thapsigargin 10 μM, tunicamycin 10 μg/ml; for concentration dependence of the effect on nuclear localization of SMN: HeLa cells (CHX FIG. 3b; VPA 2-10 mM FIG. 5b); for nuclear translocation of SMN at longer times: >24 hr (FIG. 5a)
# Experimental: (§1) HeLa PV were cultured in Dulbecco's modified Eagle's medium (Invitrogen) supplemented with 10% fetal bovine serum (Invitrogen). For screening, cells were seeded onto 384-well plates or, for specific experiments, on glass coverslips the day before treatment. Compounds were added directly into the culture medium to the indicated concentration and the cells were then maintained at 37° C. in a 5% CO2 humidified atmosphere for the duration of the treatment. Dispensing of compounds and other automatic liquid handling steps were performed with a Beckman FX multi-channel system equipped with Hudson Crane robotic systems.
# (§2) The following mouse monoclonal antibodies were used for indirect immunofluorescence: 2B1 (anti-SMN), 2E17 (anti-Gemin2), 12H12 (anti-Gemin3), 10G11 (anti-Gemin5), 6E2 (anti-Gemin7), 10E10 (anti-PABP), 6BG10 (anti-FXR1), Y12 (anti-Sm) and 9H10 (anti-hnRNP A1). An affinity-purified rabbit polyclonal antibody was used to detect Gemin6.
# (§3) Indirect immunofluorescence on HeLa PV cells was performed as follows: HeLa cells, plated on glass coverslips, were briefly washed with PBS, fixed in 2% formaldehyde/PBS for 20 minutes at room temperature, permeabilized in 0.5% Triton X-100/PBS for 5 min at room temperature. Cells were blocked in 3% bovine serum albumin for 1 hour at room temperature. Double-label immunofluorescence experiments were performed by separate sequential incubations of each primary antibody, diluted in PBS containing 3% bovine serum albumin, followed by the specific secondary coupled to fluorescein isothiocyanate or TXRD. All incubations were at room temperature for 1 hour. Indirect epifluorescence microscopy was performed with a Nikon Eclipse E800 microscope. Digital images were collected with a Cook Sensicam high performance camera and processed with the IP laboratory software. Processing of samples for immunofluorescence microscopy on cells cultured in 384-well plates was automated and performed with the aid of microplate washers (ELX405, Bio-Tek) in a similar manner to that previously used for individual samples on glass slides. The cells were also stained with DAPI to allow definition of the nucleus in each cell. Digital images were acquired with an automated microscopy and analysis system (IN Cell Analyzer 1000, GE Healthcare). Images were analyzed using automated algorithms with parameters set to calculate mean pixel intensity in each nucleus (defined by DAPI staining and acquired in a separate channel), cytoplasm, and total cell, as well as the relevant calculated ratios of these values.
# Based on the results obtained in Example 1, a library of ˜5,000 biologically active small molecules was screened on HeLa cells in 384-well plates. Each well was incubated with a different compound (at 10 μM) and the cells were processed for indirect immunofluorescence. Digital images were collected from six fields in each well and analyzed using imaging algorithms for multiple parameters including relative nuclear and cytoplasmic intensities, and number, size and signal intensity of Gems. DAPI-stained images were collected in a separate channel to define the boundary of each nucleus. Images of individual fields in wells were flagged by the software as showing a significant change in SMN sub-cellular localization. These individual wells were examined directly, and active compounds were re-tested for verification (FIG. 2).
# [2] = test system: Gemins 2, 3, 5, 6 and 7 localization in HeLa cells; experiment: Immunostaining of Gemins (SMN complex components) in treated cells; assay type: cell-based
# Experimental: as §2
# Indirect immunofluorescence on HeLa PV cells was performed as follows: HeLa cells, plated on glass coverslips, were briefly washed with PBS, fixed in 2% formaldehyde/PBS for 20 minutes at room temperature, permeabilized in 0.5% Triton X-100/PBS for 5 min at room temperature. Cells were blocked in 3% bovine serum albumin for 1 hour at room temperature. Double-label immunofluorescence experiments were performed by separate sequential incubations of each primary antibody, diluted in PBS containing 3% bovine serum albumin, followed by the specific secondary coupled to fluorescein isothiocyanate or TXRD. All incubations were at room temperature for 1 hour. Indirect epifluorescence microscopy was performed with a Nikon Eclipse E800 microscope. […] Images were analyzed using automated algorithms with parameters set to calculate mean pixel intensity in each nucleus (defined by DAPI staining and acquired in a separate channel), cytoplasm, and total cell, as well as the relevant calculated ratios of these values. […]
# p38 MAPK = experiment: Effect of p38 MAPK activators and inhibitors on SMN complex components relocalization under protein synthesis inhibition; assay type: cell-based; conditions: for SMN accumulation in the nucleus in the presence of a protein synthesis inhibitor: with a protein synthesis inhibitor such as cycloheximide
# Experimental: as §1, §3
# Next, the effect of p38 MAPK activators and inhibitors on SMN complex components relocalization under conditions of protein synthesis inhibition was monitored.
# [3] = test system: hnRNP A1, PABP, FXR1 and snRNPs localization in HeLa cells; experiment: Localization of other nuclear and cytoplasmic proteins (specificity); assay type: cell-based; conditions: 6 hrs of 10 μM CHX (FIG. 3c)
# Experimental: as §2
# Indirect immunofluorescence on HeLa PV cells was performed as follows: HeLa cells, plated on glass coverslips, were briefly washed with PBS, fixed in 2% formaldehyde/PBS for 20 minutes at room temperature, permeabilized in 0.5% Triton X-100/PBS for 5 min at room temperature. Cells were blocked in 3% bovine serum albumin for 1 hour at room temperature. Double-label immunofluorescence experiments were performed by separate sequential incubations of each primary antibody, diluted in PBS containing 3% bovine serum albumin, followed by the specific secondary coupled to fluorescein isothiocyanate or TXRD. All incubations were at room temperature for 1 hour. Indirect epifluorescence microscopy was performed with a Nikon Eclipse E800 microscope. […] Images were analyzed using automated algorithms with parameters set to calculate mean pixel intensity in each nucleus (defined by DAPI staining and acquired in a separate channel), cytoplasm, and total cell, as well as the relevant calculated ratios of these values.
# HeLa cells = experiment: Cell viability / toxicity of treated cells; conditions: overnight treatment with 10 μM CHX
molecule,measurement,setting,value
tunicamycin,redistribution of SMN from the cytoplasm to the nucleus (accumulation of SMN in the nucleus),[1]; HeLa cells,caused SMN to accumulate in the nucleus
same,immunostaining of SMN showing nuclear accumulation (FIG. 8),[1]; HeLa cells,nuclear accumulation
CCCC(CCC)C(=O)O [valproic acid],localization of Gemin3 and Gemin5,[2]; 24 hour treatment with VPA (FIG. 5c),remain predominantly cytoplasmic
same,concentration dependence of the effect on nuclear localization of SMN,[1],clear concentration dependence effect
same,nuclear translocation of SMN at longer times,[1]; HeLa cells,caused the same effect as protein synthesis inhibitors
CC[C@H]1CN2CCc3cc(OC)c(OC)cc3[C@@H]2C[C@@H]1C[C@H]1NCCc2cc(OC)c(OC)cc21 [emetine],redistribution of SMN from the cytoplasm to the nucleus (accumulation of SMN in the nucleus),[1]; HeLa cells,showed the same effect as cycloheximide
same,immunostaining of SMN showing nuclear accumulation (FIG. 8),[1]; HeLa cells,nuclear accumulation
Oc1ccc(-c2nc(-c3ccncc3)c(-c3ccc(F)cc3)[nH]2)cc1 [SB202190],"localization of SMN complex components, p38 MAPK inhibitor combined with Anisomycin","p38 MAPK; 10 μM SB202190 + 1 μg/ml Anisomycin, HeLa cells, FIG. 6",accumulation of SMN complex components in the nucleus
same,"localization of SMN complex components, p38 MAPK inhibitor combined with CHX","p38 MAPK; 10 μM SB202190 + 10 μM CHX, HeLa cells, FIG. 6",accumulation of SMN complex components in the nucleus
C[C@@H]1C[C@@H]([C@H](O)CC2CC(=O)NC(=O)C2)C(=O)[C@@H](C)C1 [cycloheximide],relocation of SMN complex components (Gemins) to the nucleus,"[2]; HeLa cells, 6 hours 10 μM CHX (FIG. 4), Gemin3 and Gemin5 excepted",causes most of the components of the SMN complex to accumulate in the nucleus
same,"localization of other nuclear and cytoplasmic proteins (hnRNP A1, PABP, FXR1, snRNPs)",[3],not significantly affected
same,cell viability,HeLa cells,no reduction in cell viability
same,treatment time after which little SMN was detected in the cytoplasm,[1]; HeLa cells,≥ 8 h
same,treatment time after which the effect on SMN redistribution was evident,[1]; HeLa cells,2 h
same,concentration dependence of the effect on nuclear localization of SMN,[1],concentration-dependent
same,concentrations exhibiting a clear effect on redistribution of SMN from the cytoplasm to the nucleus,"[1]; HeLa cells, FIG. 3a,b",0.1 to 40 µM
same,redistribution of SMN from the cytoplasm to the nucleus (accumulation of SMN in the nucleus),[1]; HeLa cells,most striking accumulation of SMN in the nucleus
same,reversibility of SMN nuclear accumulation,[1]; cells washed and placed in fresh medium devoid of cycloheximide,reversible
TNFα,"localization of SMN complex component, p38 MAPK activator combined with CHX","p38 MAPK; 150 ng/ml TNFα + 10 μM CHX, HeLa cells, FIG. 6",still remained in the cytoplasm
same,"localization of SMN complex components, p38 MAPK activator alone","p38 MAPK; 150 ng/ml TNFα, HeLa cells, FIG. 6",accumulation of SMN complex components in the cytoplasm
same,SMN accumulation in the nucleus in the presence of a protein synthesis inhibitor,p38 MAPK,inhibit SMN accumulation in the nucleus
O=C(CCCCCN1C(=O)c2cccc3cccc(c23)C1=O)NO [scriptaid],nuclear translocation of SMN at longer times,[1]; HeLa cells,caused the same effect as protein synthesis inhibitors
CCOC(=O)CN1C(=O)CC(C[C@@H](O)[C@@H]2C[C@@H](C)C[C@H](C)C2=O)CC1=O [cycloheximide-N-ethylethanoate],redistribution of SMN from the cytoplasm to the nucleus (accumulation of SMN in the nucleus),[1]; HeLa cells,did not show any effect
COc1ccc(C[C@H]2NC[C@H](O)[C@H]2OC(C)=O)cc1 [Anisomycin],"localization of SMN complex components, Anisomycin alone",p38 MAPK; treated cell (FIG. 6: 1 μg/ml Anisomycin),accumulate in the cytoplasm
same,SMN accumulation in the nucleus in the presence of a protein synthesis inhibitor,p38 MAPK,inhibit SMN accumulation in the nucleus
CC(/C=C/C(=O)NO)=C\[C@@H](C)C(=O)c1ccc(N(C)C)cc1 [trichostatin A],nuclear translocation of SMN at longer times,[1]; HeLa cells,caused the same effect as protein synthesis inhibitors
COc1ccc(C[C@H](N)C(=O)N[C@H]2[C@@H](O)[C@H](n3cnc4c(N(C)C)ncnc43)O[C@@H]2CO)cc1 [puromycin],redistribution of SMN from the cytoplasm to the nucleus (accumulation of SMN in the nucleus),[1]; HeLa cells,showed the same effect as cycloheximide
same,immunostaining of SMN showing nuclear accumulation (FIG. 8),[1]; HeLa cells,nuclear accumulation
C/C=C(/C)C(=O)O[C@H]1C(C)=C2[C@H]([C@@H]1OC(=O)CCCCCCC)[C@@](C)(OC(C)=O)C[C@H](OC(=O)CCC)[C@@]1(O)[C@H]2OC(=O)[C@@]1(C)O [thapsigargin],redistribution of SMN from the cytoplasm to the nucleus (accumulation of SMN in the nucleus),[1]; HeLa cells,caused SMN to accumulate in the nucleus
same,immunostaining of SMN showing nuclear accumulation (FIG. 8),[1]; HeLa cells,nuclear accumulation
